Consider one compound from patent US20150105252A1, “SUBSTITUTED PYRAZOLES AS HERBICIDES” (E I DU PONT DE NEMOURS AND COMPANY, priority 2013, published 2015).

One experiment relates to deadnettle. The experiment in a line: Test C postemergence. The class given is in vivo, Lamium amplexicaule. Particulars: for Plant response rating, Deadnettle: postemergence. From the text:
(§1) Seeds of plant species selected from blackgrass (Alopecurus myosuroides), ryegrass, Italian (Italian ryegrass, Lolium multiflorum), wheat (winter wheat, Triticum aestivum), galium (catchweed bedstraw, Galium aparine), corn (Zea mays), crabgrass, large (large crabgrass, Digitaria sanguinalis), foxtail, giant (giant foxtail, Setaria faberii), johnsongrass (Sorghum halepense), lambsquarters (Chenopodium album), morningglory (Ipomoea coccinea), nutsedge, yellow (yellow nutsedge, Cyperus esculentus), pigweed (redroot pigweed, Amaranthus retroflexus), ragweed (common ragweed, Ambrosia elation), soybean (Glycine max), barnyardgrass (Echinochloa crus-galli), oilseed rape (Brassica napus), waterhemp (common waterhemp, Amaranthus rudis), oat, wild (wild oat, Avena fatua), kochia (Kochia scoparia), Surinam grass (Brachiaria decumbens), foxtail, green (green foxtail, Setaria viridis), goosegrass (Eleusine indica), bromegrass, downy (downy bromegrass, Bromus tectorum), nightshade (eastern black nightshade, Solanum ptycanthum), cocklebur (common cocklebur, Xanthium strumarium), cupgrass, woolly (woolly cupgrass, Eriochloa villosa), bermudagrass (Cynodon dactylon), sunflower, (common oilseed sunflower, Helianthus annuus), Russian thistle (Salsola kali), and velvetleaf (Abutilon theophrasti) were planted into a blend of loam soil and sand and treated preemergence with test chemicals formulated in a non-phytotoxic solvent mixture which included a surfactant.
(§2) At the same time, plants selected from these crop and weed species and also chickweed (common chickweed, Stellaria media), canarygrass (littleseed canarygrass, Phalaris minor), and deadnettle (henbit deadnettle, Lamium amplexicaule), were planted in pots containing Redi-Earth® planting medium (Scotts Company, 14111 Scottslawn Road, Marysville, Ohio 43041) comprising spaghnum peat moss, vermiculite, wetting agent and starter nutrients and treated with postemergence applications of test chemicals formulated in the same manner. Plants ranged in height from 2 to 18 cm (1- to 4-leaf stage) for postemergence treatments. Treated plants and controls were maintained in a greenhouse for 13 to 15 days, after which time all species were compared to controls and visually evaluated. Plant response ratings, summarized in Table C, are based on a scale of 0 to 100 where 0 is no effect and 100 is complete control. A dash (-) response means no test result.

For a further experiment, the system named is kochia. The experiment in a line: Test C preemergence. The class given is in vivo, Kochia scoparia.
Excerpt: as §1, §2

Another experiment deals with barley. The experiment in a line: Test C postemergence. The class given is in vivo, Hordeum vulgare. Particulars: Postemergence, 31 g ai/ha, scale 0 to 100.
The next experiment deals with nightshade. The experiment can be described thus: Test C preemergence. The class given is in vivo, Solanum ptycanthum.
Excerpt: as §1, §2

The mark [1] stands for this setting: preemergence, 31 g ai/ha, scale 0 to 100 (0 no effect, 100 complete control), 13 to 15 days.
Setting [2] is: preemergence, 62 g ai/ha, 13 to 15 days, scale 0 to 100, 0 = no effect, 100 = complete control.
Where [3] appears, read: preemergence, 125 g ai/ha, scale 0 to 100, 0 is no effect, 100 is complete control.

For `CCc1cc(C(=O)NOC(C)C)nn1Cc1cccc(OC(F)(F)F)c1` [Compound 70], the “Deadnettle plant response rating” value in the experiment on deadnettle (Postemergence, 31 g ai/ha, scale 0 to 100) was found to be 25. For the same compound, the “Plant response rating, Deadnettle” value in the experiment with deadnettle (250 g ai/ha, scale 0 to 100 (0 no effect, 100 complete control)) was found to be 90; in the experiment with deadnettle (62 g ai/ha, scale 0 to 100, 0 no effect, 100 complete control), 70; in the experiment on deadnettle (125 g ai/ha, scale 0 to 100, 0 no effect, 100 complete control), 70. Further, the “Plant response rating (scale of 0 to 100), Kochia” value with kochia (Preemergence, 250 g ai/ha) is 98. Moreover, the results for the “Kochia plant response rating” value with kochia (setting [1]) and in the experiment on kochia (setting [3]) were 40 and 98, respectively. Further, the “Plant response rating, Kochia” value in the experiment with kochia (setting [2]) is given as 65. For the same compound, the “Barley plant response rating” value with barley is on record as 0. Moreover, the “Plant response rating (scale of 0 to 100), Nightshade” value in the experiment with nightshade (Preemergence, 250 g ai/ha) is on record as 98. The “Nightshade plant response rating” value in the experiment with nightshade (setting [1]) turned out to be 70; in the experiment on nightshade (setting [3]), 98. The “Plant response rating, Nightshade” value with nightshade (setting [2]) worked out at 98.
